Data: patent publication US20240294523A1, “HETEROCYCLIC LACTAM COMPOUND, AND PREPARATION METHOD THEREFOR AND PHARMACEUTICAL USE THEREOF” (Genfleet Therapeutics (Shanghai) Inc., priority 2021, published 2024)

Tests used:
U937 cells = assay: Inhibition of TNF-α-induced programmed necrosis of U937 cells (CellTiter-Glo); format: cell-based; details: U-937, human TNF-α + Q-VD-Oph, 48 hours
Description: The U937 cell line used in the following test examples was from ATCC, number: CRL-1593.2, batch number: 63479999, culture medium: RPMI-1640+10% FBS.
(§1) The reagents used, suppliers and product numbers of the reagents were as follows: RPMI-1640, Gibco, 11875-093; FBS, Gibco, 10099-141; Trypsin-EDTA, Gibco, 25200-072; PS, Gibco, 15140-122; CellTiter Glo , Progema, G7573; DMSO, VWR AMRESCO, 0231-500ML; TNF-α protein (human, recombinant), Peprotech, 300-01A; Q-VD-Oph, MCE, HY-12305; V-shaped bottom plate, Corning, 3894; 384-well low-flange white flat-bottom microplate, Corning, 3570; RIPK1, Eurofins, 16-022; MOPS, BDH, 441644J; EDTA, Sigma, E5134; Myelin basic protein, Sigma, M1891-25.00 MG; Magnesium acetate, Merck, DU008026; ATP (non-radioactive label), Sigma, A-7699; ATP (radioactive label), Hartmann Analytic, DU008054; Phosphoric acid, Metlab, DU003000; Z-VAD: Shanghai Yuang Chemical Industry, YA02401.
The compounds to be tested were dissolved in DMSO and diluted with DMSO into a series of concentration gradients. 5000 U937 cells/well were seeded in a 384-well white plate. Compounds of corresponding concentrations were added to each well and mixed evenly with the cells. At the same time, human TNF-a and Q-VD-Oph were added to induce programmed necrosis of the cells. The cells were placed at 37° C., 5% CO2 incubator for 48 hours. CellTiter-Glo reagent was used for detection, and the chemiluminescence reading was detected using a microplate reader after sufficient lysis reaction. The test results were calculated using the formula SR (%)=(RLU compound−RLU blank)/(RLU high control−RLU blank)×100%. The survival rate and the final concentration of the corresponding compound were drawn into a curve and fitted using four parameters. Inhibitory IC50 on TNF-α-induced cell necrosis of the compounds were calculated.

L929 cells = assay: Inhibition of TNF-α-induced programmed necrosis of L929 cells (CellTiter-Glo); format: cell-based; details: 30 ng/ml mouse TNF-α + 15 μM Z-VAD, 6 hours
Description: The L929 cell line used in the following test examples was from ATCC, number: CCL-1, batch number: 70001022, culture medium: MEM+10% FBS+1% PS.
as §1
The compounds to be tested were dissolved in DMSO to prepare a 10 mM stock solution, and diluted 3.16 times with DMSO into a series of concentration gradients, and then dilute 100 times to prepare a working solution. 10000 L929 cells/well were seeded in a 384-well white plate. Compounds of corresponding concentrations were added to each well and mixed evenly with the cells. At the same time, 30 ng/ml mouse TNF-α and 15 μM Z-VAD were added to induce programmed necrosis of the cells, the final concentration of DMSO was 0.2%. The cells were placed at 37° C., 5% CO2 incubator for 6 hours. CellTiter-Glo reagent was used for detection, and the chemiluminescence reading was detected using a microplate reader after sufficient lysis reaction. The test results were calculated using the formula SR (%)=(RLU compound−RLU blank)/(RLU high control−RLU blank)×100%. The survival rate and the final concentration of the corresponding compound were drawn into a curve and fitted using four parameters. Inhibitory IC50 on TNF-α-induced cell necrosis of the compounds were calculated.

RIPK1 = RIPK1 (Homo sapiens (Human), UniProt Q13546); assay: Inhibitory activity against RIPK1 enzyme (33P-ATP, MBP substrate); format: biochemical; details: 36 nM RIPK1, 0.33 mg/ml MBP, 155 μM ATP, 2 hours, room temperature
Description: as §1
The compound to be tested was dissolved in DMSO to prepare a 10 mM stock solution, diluted 3.16 times with DMSO into a series of concentration gradients, and then MOPS pH 7.0 buffer solution was used to dilute 50 times to prepare a working solution, and mixed well with 36 nM RIPK1 (final concentration), 0.33 mg/ml substrate MBP. Afterwards, 10 mM magnesium ions and 155 μM phosphorus 33 isotope-labeled ATP were added to react, The final concentration of DMSO was 2%. After the reaction was proceeded at room temperature for 2 hours, phosphoric acid was added to terminate. The final reaction system was processed and detected using a liquid scintillation counter. After the test results are subtracted from the blank control and compared with the reading value of the control group to convert to the activity percentage, which was plotted as a curve with the final concentration of the corresponding compound, and four-parameter fitting was used to obtain the IC50 of the compound that inhibits RIPK1 enzyme activity.

Sequence of RIPK1 (Q13546 whole entry): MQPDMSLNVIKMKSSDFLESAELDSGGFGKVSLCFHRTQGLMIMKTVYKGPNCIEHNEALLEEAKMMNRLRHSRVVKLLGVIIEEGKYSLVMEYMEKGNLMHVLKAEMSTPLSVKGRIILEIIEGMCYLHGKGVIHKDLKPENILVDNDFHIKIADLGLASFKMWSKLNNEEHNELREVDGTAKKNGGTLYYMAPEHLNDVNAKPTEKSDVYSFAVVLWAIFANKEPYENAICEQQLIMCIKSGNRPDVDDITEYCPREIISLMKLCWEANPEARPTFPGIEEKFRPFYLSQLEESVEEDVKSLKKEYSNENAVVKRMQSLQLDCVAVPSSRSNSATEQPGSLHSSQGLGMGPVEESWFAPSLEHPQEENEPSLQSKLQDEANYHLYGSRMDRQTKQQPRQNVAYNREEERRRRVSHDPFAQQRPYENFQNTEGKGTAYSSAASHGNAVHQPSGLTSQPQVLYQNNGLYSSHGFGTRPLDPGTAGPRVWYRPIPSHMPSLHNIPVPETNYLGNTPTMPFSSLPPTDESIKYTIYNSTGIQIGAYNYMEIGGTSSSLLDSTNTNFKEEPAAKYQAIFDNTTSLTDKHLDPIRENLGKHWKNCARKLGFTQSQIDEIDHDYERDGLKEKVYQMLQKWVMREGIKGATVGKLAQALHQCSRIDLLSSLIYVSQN

| Structure (SMILES) | IC50 (U937 cells) [nM] | IC50 (L929 cells) [nM] | IC50 (RIPK1) [nM] |
| --- | --- | --- | --- |
| CC(C(F)F)N1CCc2c(nn(Cc3c(F)cccc3F)c2Cl)C1=O (stereo not shown) [Compound Z9, 3-chloro-2-(2,6-difluorobenzyl)-6-(1,1-difluoropropan-2-yl)-2,4,5,6-tetrahydro-7H-pyrazolo[3,4-c]pyridin-7-one] | 57.1 | 600 | – |
| C[C@@H](C(F)F)N1CCc2c(nn(Cc3c(F)cccc3F)c2Br)C1=O (single isomer, unassigned) [Compound Z24-2] | 29.7 | 348 | – |
| C[C@H](C(F)F)N1CCc2c(nn(Cc3c(F)cccc3F)c2Cl)C1=O (single isomer, unassigned) [Compound Z9-2] | 42.8 | 450 | 89 |
